Converted amounts (≈) assume the structure as drawn. Like-named read-outs stand apart in the source and are kept apart here.
Columns and labels:
[1] = physchem; details: 25 °C, water, thermodynamic from solid
Protocol: Glass vials containing water and excess amount of carvedilol salts were shaken by a mechanical shaker at ambient conditions. Aliquots were taken out at various time-point, filtered through 0.45 μm Acrodisc GHP filter. The pH of the filtered solutions was measured and suitable dilution was performed prior to UV-Vis analysis of carvedilol concentration.

[2] = cited from earlier work

solubility at 1 h [1]: 9.8 µg/mL (≈ 24.1 µM)
solubility at 24 h [1]: 11.6 µg/mL (≈ 28.5 µM)
SMILES: COc1ccccc1OCCNCC(O)COc1cccc2[nH]c3ccccc3c12 (racemic) [Carvedilol Free Base]
solubility ([2]; above pH 9.0): < 1 µg/mL
saturation solubility ([2]; pH 5, room temperature): ~100 µg/mL
saturation solubility ([2]; pH 7, room temperature): ~23 µg/mL

Source: patent US20080096951A1 (SB Pharmo Puerto Rico Inc., priority 2002, published 2008)
